# Experimental data reported in the OPERA property sets (Mansouri et al. 2018).
# Settings: not given
Compound,melting point [°C],boiling point [°C],log10 Koc (L/kg),log10 vapour pressure (mmHg),ready biodegradability,log10 Henry constant (atm·m³/mol),log10 Koa
N#Cc1nccnc1C#N,132,–,–,–,–,–,–
NC(=O)Oc1ccc(Cc2ccccc2)cc1,148,–,–,–,–,–,–
C[C@@H]1C[C@@]2(C)[C@@H](CC[C@@H]3[C@@H]2CC[C@]2(C)[C@@H](O)CC[C@@H]32)CC1=O,151,–,–,–,–,–,–
CC(=O)c1cccc(O)c1,96,296,–,–,–,–,–
CC=CC(C)=O,–,122,–,–,–,–,–
FC(F)C(F)(F)Cl,-117,-10,–,–,–,–,–
N[C@@H](CSCC(=O)O)C(=O)O,206,–,–,–,–,–,–
O=C(O)COc1cc(Cl)c(Cl)cc1Cl,153,–,1.99,–,–,–,–
CCOc1nc(F)cc2nc(S(=O)(=O)Nc3c(Cl)cccc3C(=O)OC)nn12,217,–,–,–,–,–,–
Cc1c(NC(=O)C(C)N(C)C)c(=O)n(-c2ccccc2)n1C (stereo unspecified),181,–,–,–,–,–,–
CCCCCCCCCCCCCCCCCC(C)=O,57,–,–,–,–,–,–
C/C=C(\C)C(=O)O,64.5,198,–,-0.875,–,–,–
NS(=O)(=O)c1cc2c(cc1C(F)(F)F)NC(Cc1ccccc1)NS2(=O)=O (stereo unspecified),222,–,–,–,–,–,–
CCC(C)(C)Br,–,108,–,–,–,–,–
CCCNC(C)C,–,96.9,–,–,–,–,–
COc1ccccc1N1CCNCC1,38.5,–,–,–,–,–,–
Cc1ccc(N)c(S(=O)(=O)O)c1,–,–,–,–,not readily biodegradable,–,–
Clc1cc2oc3cc(Cl)c(Cl)cc3c2cc1Cl,227,–,–,–,–,-4.78,10
COc1ccc2nc(N)sc2c1,166,–,–,–,–,–,–
O=C(O)C(I)I,110,–,–,–,–,–,–
O=C(O)c1cc(=O)c2cccc(O)c2[nH]1,289,–,–,–,–,–,–

Compound,melting point [°C],boiling point [°C],log10 Koc (L/kg),log10 vapour pressure (mmHg),ready biodegradability,log10 Henry constant (atm·m³/mol),log10 Koa
C[C@@H](CN)c1ccccc1,–,210,–,–,–,–,–
CC=CCCC=CC,-76,124,–,–,–,–,–
CCCC(C)N (stereo unspecified),–,92,–,–,–,–,–
CC(C)CNCCO,–,199,–,–,–,–,–
CCOC(=O)C(Cl)(Cl)Cl,–,168,–,0.581,–,–,–
CCCCS(=O)(=O)CCCC,45,291,–,–,–,–,–
COC(=O)C(F)(F)C(F)(F)C(F)(F)F,-86,80,–,–,–,–,–
C[S@](=O)c1ccccc1,32,264,–,–,–,–,–
CC(=O)Oc1cccc(C(=O)O)c1OC(C)=O,149,–,–,–,–,–,–
COC1=C(OC)C(=O)C(C)=C(C)C1=O,62.5,–,–,–,–,–,–
CCSC(=O)COc1ccc(Cl)cc1C,41.5,–,–,-3.8,–,–,–
CC(C)(C#N)C#N,31.5,170,–,0.16,–,–,–
NC(=O)NCCCC(N)C(=O)O (stereo in doubt),236,–,–,–,–,–,–
C=C(C)C1CC=C(C)C(=O)C1 (stereo unspecified),–,230,–,–,–,–,–
Cc1cncnc1,30.5,153,–,–,–,–,–
COC(=O)CCCCCC(=O)OC,-21,–,–,–,–,–,–
CC(=O)C(c1ccccc1)c1ccccc1,46,307,–,–,–,–,–
CCCCCCCCCCCCCCCC(=O)CC,51,–,–,–,–,–,–
COc1ccc(CN)cc1,–,236,–,–,–,–,–
Brc1ccc(Oc2ccc(Br)cc2)cc1,60.5,339,–,–,–,–,8.64
CCC(C)c1ccccc1O (stereo unspecified),16,228,–,–,not readily biodegradable,–,–

Compound,melting point [°C],boiling point [°C],log10 Koc (L/kg),log10 vapour pressure (mmHg),ready biodegradability,log10 Henry constant (atm·m³/mol),log10 Koa
CC(C)(C)c1ccccn1,-33,170,–,–,–,–,–
CCCCCCCCCCCC[N+](C)(C)CC(=O)[O-],–,–,–,–,readily biodegradable,–,–
O=C(O)COc1nn(Cc2ccccc2)c2ccccc12,160,–,–,–,–,–,–
c1ccc(-c2ccc(-c3ccccc3)o2)cc1,91,344,–,–,–,–,–
C=CCSC#N,–,161,–,–,–,–,–
CCC(C)(O)CCCC(C)C (stereo unspecified),31.5,196,–,–,–,–,–
O=C(O)Cc1cccc([N+](=O)[O-])c1,118,–,–,–,–,–,–
CCC(=O)OCCOC(=O)CC,–,211,–,–,–,–,–
CC(C)(C)OCCO,–,–,–,–,not readily biodegradable,–,–
CCOC(=O)CC(SP(=S)(OC)OC)C(=O)OCC (stereo unspecified),2.8,–,2.36,-5.47,not readily biodegradable,-8.31,–
CCCCOC(=O)C(C)CC (stereo unspecified),–,179,–,–,–,–,–
CCCC(=O)Nc1ccc(OCC(O)CNC(C)C)c(C(C)=O)c1 (stereo unspecified),121,–,–,–,–,–,–
O=C(c1ccccc1)N1CCCCC1,49,320,–,–,–,–,–
O=C(O)C(Cc1ccccc1)Cc1ccccc1,90,–,–,–,–,–,–
CCOP(=S)(OCC)Oc1ccc([N+](=O)[O-])cc1,6.1,375,3.2,-5.18,–,-6.53,–
COc1cccc(OC)n1,–,179,–,–,–,–,–
CN1CCN(C(=O)OC2C3=C(SCCS3)C(=O)N2c2ccc3ccc(Cl)nc3n2)CC1 (stereo unspecified),280,–,–,–,–,–,–
CC(=O)Nc1ccccc1F,78,–,–,–,–,–,–
CCCCCF,-120,62.8,–,2.27,–,–,–

# Same assay, conditions: fish
Compound,log10 BCF,log10 biotransformation half-life (days)
Cc1c(Cl)c(Cl)c(C)c(Cl)c1Cl,3.62,1.12
Cc1cc(C)cc(C)c1,2.27,0.4
Clc1cccc(-c2c(Cl)ccc(Cl)c2Cl)c1,–,2.47
Cc1ccc(C)cc1,1.17,–
O=[N+]([O-])c1ccc2[nH]cnc2c1,0.4,-1.15
Cc1ccc(N)c(S(=O)(=O)O)c1,0.6,–
Clc1cc2oc3cc(Cl)c(Cl)cc3c2cc1Cl,3.61,0.56
CCOC(=O)CC(SP(=S)(OC)OC)C(=O)OCC (stereo unspecified),1.52,0.29
CCOP(=S)(OCC)Oc1ccc([N+](=O)[O-])cc1,1.99,-0.41
